Measurements reported in patent publication US20240287046A1, “COMPOUNDS AND RADIOLIGANDS FOR TARGETING NEUROTENSIN RECEPTOR AND USES THEREOF” (Full-Life Technologies HK Limited, priority 2022, published 2024).
Like-named read-outs stand apart in the source and are kept apart here. Each block holds one compound with its values, some of them ahead of it.

Tests used:
human NTSR-1 = human NTSR-1 (Homo sapiens (Human), UniProt P30989); experiment: radioligand competitive binding assay using ^177Lu labeled C-1 as reference radioligand; settings: for Relative Binding Affinity: Mean IC50 of C-1/Mean IC50 of the test compound; for IC50: Nonlin fit, single assay, HT-29 cells
Sequence of human NTSR-1 (P30989 whole entry): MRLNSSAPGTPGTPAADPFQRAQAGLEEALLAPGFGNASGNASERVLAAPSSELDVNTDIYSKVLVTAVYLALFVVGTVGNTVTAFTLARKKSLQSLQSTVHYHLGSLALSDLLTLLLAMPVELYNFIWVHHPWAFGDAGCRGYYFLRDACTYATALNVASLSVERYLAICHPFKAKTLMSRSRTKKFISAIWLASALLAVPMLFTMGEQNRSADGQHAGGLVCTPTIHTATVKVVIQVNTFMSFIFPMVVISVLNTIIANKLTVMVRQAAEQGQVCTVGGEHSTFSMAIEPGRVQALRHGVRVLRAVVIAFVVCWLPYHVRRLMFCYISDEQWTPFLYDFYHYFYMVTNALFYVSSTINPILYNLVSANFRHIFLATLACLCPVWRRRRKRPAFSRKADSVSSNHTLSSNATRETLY
Method: The binding affinities of test compounds were determined by a radioligand competitive binding assay using ^177Lu labeled C-1 as the reference radioligand.
Briefly, 100 μL HT-29 cells expressing human NTSR-1 at a density of 1˜2×10^6 cells/mL were mixed with binding buffer (RPMI-1640 medium supplemented with 0.25% bovine serum albumin) in each well of the 96-well filter plate (Millipore). Then the cells in each well were incubated with ^177Lu—C-1 (0.55 μCi/well) and the test compound under 37° C. for 1 hr (n=3). After incubation, unbound ^177Lu—C-1 and the test compound in each well was removed by filtration using a Multiscreen vacuum manifold (Millipore) and the cells were further rinsed with the binding buffer for 5 times. The cells from each well were then collected and radioactivity of the cells in each well was individually measured by y counter (2480 WIZARD2, PerkinElmer). The best-fit IC50 value of test compounds (inhibitory concentration when 50% of the bound ^177Lu—C-1 on cells were displaced) were calculated by fitting the data with nonlinear regression using GraphPad Prism 8.0.1.

HT-29 tumor-bearing mice = experiment: Biodistribution of radionuclide labeled complexes in HT-29 tumor-bearing mice; type: in vivo, BALB/c nude mice
Method: (§1) The BALB/c nude mice (Charles River, Beijing) were utilized to establish the xenografted model for biodistribution study. All animal care and experimental procedure were performed by following the animal protocols approved by the ethics committee of China Institute of Radiation Protection.
(§2) Briefly, each mouse was inoculated with approximately 4×10^6 ASPC-1 cells (human pancreatic cancer cell line) or HT-29 cells (human colorectal adenocarcinoma cell line) expressing human NTSR-1 by subcutaneous injection at rear flank. After inoculation, the xenografted tumors were allowed to grow for ˜2-4 weeks till the tumor weight reached to about 0.05 to 0.50 g (0.20 g in average).
(§3) Biodistribution studies were performed by administrating the radionuclide labeled test compound at a dose of ˜30-50 μCi (100 μL in 0.9% NaCl, ˜1.11-1.85 MBq, with specific activity 30-250 μCi/nmol) to each animal through tail vein injection.
(§4) At different time points after the administration, the mice treated with each compound were euthanized. The tissues and organs of the animals in each group were collected, excised, weighed, and analyzed in a PerkinElmer 2480 WIZARD2γ counter, and the percent injected dose (% ID) and % ID/g of each organ or tissue were calculated.

[1] = tested on: ASPC-1 tumor-bearing mice; experiment: Biodistribution of radionuclide labeled complexes in ASPC-1 tumor-bearing mice; type: in vivo, BALB/c nude mice
Method: as §1, §2, §3, §4

[2] = read-out: LogIC50 Mean (converted)

- Relative Binding Affinity (human NTSR-1): 11.2
Compound: COc1cccc(OC)c1-c1cc(C(=O)NC2(C(=O)O)C3CC4CC(C3)CC2C4)nn1-c1ccc(NC(=O)COCCOCCNC(=O)CN2CCN(CC(=O)O)CCN(CC(=O)O)CCN(CC(=O)O)CC2)cc1C(C)C (stereo not shown) [Compound I-12]

Compound: CC(=O)N[C@@H](CCCCNC(=O)CN1CCN(CC(=O)O)CCN(CC(=O)O)CCN(CC(=O)O)CC1)C(=O)N1CCC[C@H]1C(=O)N(C)[C@@H](CCCNC(=N)N)C(=O)N[C@@H](CCCNC(=N)N)C(=O)N1CCC[C@H]1C(=O)N[C@@H](Cc1ccc(O)cc1)C(=O)N[C@H](C(=O)N[C@@H](CC(C)C)C(=O)O)C(C)(C)C [Compound C-1, reference compound]
- Relative Binding Affinity (human NTSR-1): 1.00
- IC50 (human NTSR-1; read-out: IC50 (nM) Mean): 40.3 nM
- IC50 (human NTSR-1; [2]): 40.4 nM

- Relative Binding Affinity (human NTSR-1): 293.0
- IC50 (human NTSR-1; [2]): 0.158 nM
- binding affinity compared to comparator compound C-1 or C-3 (human NTSR-1; single radioligand competitive binding assay): higher binding affinity
Compound: COc1cccc(OC)c1-c1cc(C(=O)NC2(C(=O)O)C3CC4CC(C3)CC2C4)nn1-c1ccc(NCCCCN(C)C)cc1C(C)C (stereo not shown) [II-2, 2-(5-(2,6-dimethoxyphenyl)-1-(4-((4-(dimethylamino)butyl)amino)-2-isopropylphenyl)-1H-pyrazole-3-carboxamido)adamantane-2-carboxylic acid]

- % ID/g (1 h) Blood (HT-29 tumor-bearing mice; Blood, 1 h): 3.2 ± 1.07 % ID/g
- % ID/g (4 h) Blood (HT-29 tumor-bearing mice; Blood, 4 h): 0.08 ± 0.03 % ID/g
- % ID/g (1 h) Femur (HT-29 tumor-bearing mice; Femur, 1 h): 0.68 ± 0.18 % ID/g
- % ID/g (4 h) Femur (HT-29 tumor-bearing mice; Femur, 4 h): 0.2 ± 0.03 % ID/g
- % ID/g (1 h) Heart (HT-29 tumor-bearing mice; Heart, 1 h): 1.17 ± 0.24 % ID/g
- % ID/g (4 h) Heart (HT-29 tumor-bearing mice; Heart, 4 h): 0.12 ± 0.03 % ID/g
- % ID/g (1 h) Intestine (HT-29 tumor-bearing mice; Intestine, 1 h): 1.21 ± 0.06 % ID/g
- % ID/g (4 h) Intestine (HT-29 tumor-bearing mice; Intestine, 4 h): 0.27 ± 0.07 % ID/g
- % ID/g (1 h) Kidney (HT-29 tumor-bearing mice; Kidney, 1 h): 5.9 ± 4.85 % ID/g
- % ID/g (4 h) Kidney (HT-29 tumor-bearing mice; Kidney, 4 h): 5.14 ± 2.21 % ID/g
- % ID/g (1 h) Liver (HT-29 tumor-bearing mice; Liver, 1 h): 1.28 ± 0.47 % ID/g
- % ID/g (4 h) Liver (HT-29 tumor-bearing mice; Liver, 4 h): 0.83 ± 0.27 % ID/g
- % ID/g (1 h) Lung (HT-29 tumor-bearing mice; Lung, 1 h): 1.66 ± 1.17 % ID/g
- % ID/g (4 h) Lung (HT-29 tumor-bearing mice; Lung, 4 h): 0.27 ± 0.04 % ID/g
- % ID/g (1 h) Muscle (HT-29 tumor-bearing mice; Muscle, 1 h): 0.57 ± 0.15 % ID/g
- % ID/g (4 h) Muscle (HT-29 tumor-bearing mice; Muscle, 4 h): 0.09 ± 0.04 % ID/g
- % ID/g (1 h) Pancreas (HT-29 tumor-bearing mice; Pancreas, 1 h): 0.62 ± 0.25 % ID/g
- % ID/g (4 h) Pancreas (HT-29 tumor-bearing mice; Pancreas, 4 h): 0.14 ± 0.02 % ID/g
- % ID/g (1 h) Spleen (HT-29 tumor-bearing mice; Spleen, 1 h): 0.45 ± 0.19 % ID/g
- % ID/g (4 h) Spleen (HT-29 tumor-bearing mice; Spleen, 4 h): 0.26 ± 0.1 % ID/g
- % ID/g (1 h) Stomach (HT-29 tumor-bearing mice; Stomach, 1 h): 0.69 ± 0.23 % ID/g
- % ID/g (4 h) Stomach (HT-29 tumor-bearing mice; Stomach, 4 h): 0.32 ± 0.2 % ID/g
- % ID/g (1 h) Tumor (HT-29 tumor-bearing mice; Tumor, 1 h): 10.31 ± 4.72 % ID/g
- % ID/g (4 h) Tumor (HT-29 tumor-bearing mice; Tumor, 4 h): 7.53 ± 3.52 % ID/g
- tumor uptake relative to blood, liver and lung compared to ^177Lu—C5 ([1]; 1 or 4 hours): significantly higher tumor uptake
- uptake ratio Tumor/Blood ([1]; 1 h): 33.3
- uptake ratio Tumor/Kidney ([1]; 1 h): 3.42
- uptake ratio Tumor/Liver ([1]; 1 h): 25.0
- uptake ratio Tumor/Lung ([1]; 1 h): 23.7
- uptake ratio Tumor/Blood ([1]; 4 h): 364
- uptake ratio Tumor/Kidney ([1]; 4 h): 5.70
- uptake ratio Tumor/Liver ([1]; 4 h): 25.9
- uptake ratio Tumor/Lung ([1]; 4 h): 79.3
- % ID/g (1 h) Blood ([1]; Blood, 1 h): 0.38 ± 0.06 % ID/g
- % ID/g (4 h) Blood ([1]; Blood, 4 h): 0.04 ± 0.01 % ID/g
- % ID/g (1 h) Femur ([1]; Femur, 1 h): 0.12 ± 0.01 % ID/g
- % ID/g (4 h) Femur ([1]; Femur, 4 h): 0.12 ± 0.09 % ID/g
- % ID/g (1 h) Heart ([1]; Heart, 1 h): 0.22 ± 0.12 % ID/g
- % ID/g (4 h) Heart ([1]; Heart, 4 h): 0.12 ± 0.03 % ID/g
- % ID/g (1 h) Intestine ([1]; Intestine, 1 h): 0.77 ± 0.31 % ID/g
- % ID/g (4 h) Intestine ([1]; Intestine, 4 h): 0.22 ± 0.06 % ID/g
- % ID/g (1 h) Kidney ([1]; Kidney, 1 h): 3.71 ± 0.24 % ID/g
- % ID/g (4 h) Kidney ([1]; Kidney, 4 h): 2.39 ± 0.37 % ID/g
- % ID/g (1 h) Liver ([1]; Liver, 1 h): 0.51 ± 0.22 % ID/g
- % ID/g (4 h) Liver ([1]; Liver, 4 h): 0.53 ± 0.16 % ID/g
- % ID/g (1 h) Lung ([1]; Lung, 1 h): 0.54 ± 0.04 % ID/g
- % ID/g (4 h) Lung ([1]; Lung, 4 h): 0.17 ± 0.08 % ID/g
- % ID/g (1 h) Muscle ([1]; Muscle, 1 h): 0.06 ± 0 % ID/g
- % ID/g (4 h) Muscle ([1]; Muscle, 4 h): 0.08 ± 0.02 % ID/g
- % ID/g (1 h) Pancreas ([1]; Pancreas, 1 h): 0.11 ± 0.03 % ID/g
- % ID/g (4 h) Pancreas ([1]; Pancreas, 4 h): 0.06 ± 0.02 % ID/g
- % ID/g (1 h) Spleen ([1]; Spleen, 1 h): 0.09 ± 0.01 % ID/g
- % ID/g (4 h) Spleen ([1]; Spleen, 4 h): 0.13 ± 0.03 % ID/g
- % ID/g (1 h) Stomach ([1]; Stomach, 1 h): 0.27 ± 0.19 % ID/g
- % ID/g (4 h) Stomach ([1]; Stomach, 4 h): 0.21 ± 0.05 % ID/g
- % ID/g (1 h) Tumor ([1]; Tumor, 1 h): 12.71 ± 4.57 % ID/g
- % ID/g (4 h) Tumor ([1]; Tumor, 4 h): 13.64 ± 2.5 % ID/g
Compound: COc1cccc(OC)c1-c1cc(C(=O)NC2(C(=O)O)C3CC4CC(C3)CC2C4)nn1-c1ccc(N(CCCN(C)C)C(=O)COCCOCCNC(=O)CN2CCN(CC(=O)[O-])CCN(CC(=O)[O-])CCN(CC(=O)[O-])CC2)cc1C(C)C.[177Lu+3] (stereo not shown) [^177Lu-I-6]
